Counter-ions that a name gives are not always drawn. Like-named read-outs stand apart in the source and are kept apart here.
Assays:
[1] = target: T1, Staphylococcus aureus pyruvate carboxylase (SaPC) (Staphylococcus aureus, UniProt A0A0H3JRU9); assay: biochemical; conditions: isolated SaPC
T1 sequence (A0A0H3JRU9 1-1150): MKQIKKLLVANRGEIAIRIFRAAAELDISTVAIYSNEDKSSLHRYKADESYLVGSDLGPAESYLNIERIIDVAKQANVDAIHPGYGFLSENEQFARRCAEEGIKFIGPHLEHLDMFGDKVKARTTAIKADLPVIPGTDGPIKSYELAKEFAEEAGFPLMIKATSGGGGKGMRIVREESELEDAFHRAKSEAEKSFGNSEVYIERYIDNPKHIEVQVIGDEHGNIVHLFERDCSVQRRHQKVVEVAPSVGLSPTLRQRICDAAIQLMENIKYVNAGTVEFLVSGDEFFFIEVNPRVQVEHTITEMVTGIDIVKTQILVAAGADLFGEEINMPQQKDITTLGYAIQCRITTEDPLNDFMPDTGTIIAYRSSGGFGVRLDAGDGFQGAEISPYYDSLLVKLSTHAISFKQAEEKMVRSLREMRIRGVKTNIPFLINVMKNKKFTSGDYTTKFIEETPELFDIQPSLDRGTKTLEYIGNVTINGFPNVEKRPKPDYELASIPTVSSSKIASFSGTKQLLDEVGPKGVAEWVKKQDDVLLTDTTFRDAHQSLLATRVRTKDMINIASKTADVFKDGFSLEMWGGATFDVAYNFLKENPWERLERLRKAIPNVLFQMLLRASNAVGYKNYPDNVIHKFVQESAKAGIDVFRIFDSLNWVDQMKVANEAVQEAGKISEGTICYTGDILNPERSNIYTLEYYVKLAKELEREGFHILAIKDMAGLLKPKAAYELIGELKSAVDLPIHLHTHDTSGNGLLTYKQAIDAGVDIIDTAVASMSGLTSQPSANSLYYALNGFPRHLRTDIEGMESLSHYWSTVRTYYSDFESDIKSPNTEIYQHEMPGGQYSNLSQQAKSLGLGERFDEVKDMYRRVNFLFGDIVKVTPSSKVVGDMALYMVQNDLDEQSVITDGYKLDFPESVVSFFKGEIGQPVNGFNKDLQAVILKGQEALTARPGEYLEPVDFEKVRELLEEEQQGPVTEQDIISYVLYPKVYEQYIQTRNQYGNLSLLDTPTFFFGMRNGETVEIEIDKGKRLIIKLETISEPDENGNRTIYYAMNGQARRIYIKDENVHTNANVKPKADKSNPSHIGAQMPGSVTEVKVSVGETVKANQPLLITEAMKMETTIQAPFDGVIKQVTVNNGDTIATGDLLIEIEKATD

GSK-3β [2] = target: T2, GSK-3β (Homo sapiens, UniProt P49841); assay: GSK-3β kinase HotSpot assay (Reaction Biology); assay type: biochemical; conditions: 10 μM ATP; for activity at 25 µM: 25 μM compound, duplicate, average, remaining kinase activity vs vehicle; for IC50: 10-point, triplicate, average ± SD
T2 sequence (P49841 whole entry): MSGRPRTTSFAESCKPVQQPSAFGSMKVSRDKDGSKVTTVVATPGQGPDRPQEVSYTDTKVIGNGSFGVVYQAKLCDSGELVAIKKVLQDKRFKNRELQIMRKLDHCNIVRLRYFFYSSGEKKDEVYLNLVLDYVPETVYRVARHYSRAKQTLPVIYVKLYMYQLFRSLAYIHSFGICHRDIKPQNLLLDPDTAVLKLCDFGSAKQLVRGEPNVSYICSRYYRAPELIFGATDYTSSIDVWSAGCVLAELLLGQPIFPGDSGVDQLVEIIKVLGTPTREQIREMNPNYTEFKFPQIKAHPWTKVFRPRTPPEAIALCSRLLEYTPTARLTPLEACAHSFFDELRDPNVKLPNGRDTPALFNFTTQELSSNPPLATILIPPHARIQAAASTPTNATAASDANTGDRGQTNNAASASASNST

[3] = target: human matrix metalloproteinase-12 (Homo sapiens, UniProt P39900); assay: Matrix metalloproteinase-12 fluorogenic substrate assay; assay type: biochemical; conditions: for activity at 25 µM: 25 μM compound, read-out: MMP-12 % Activity @ 25 μM; for activity at 200 µM: 200 μM compound, read-out: MMP-12 % Activity @ 200 μM
Sequence of human matrix metalloproteinase-12 (P39900 106-470): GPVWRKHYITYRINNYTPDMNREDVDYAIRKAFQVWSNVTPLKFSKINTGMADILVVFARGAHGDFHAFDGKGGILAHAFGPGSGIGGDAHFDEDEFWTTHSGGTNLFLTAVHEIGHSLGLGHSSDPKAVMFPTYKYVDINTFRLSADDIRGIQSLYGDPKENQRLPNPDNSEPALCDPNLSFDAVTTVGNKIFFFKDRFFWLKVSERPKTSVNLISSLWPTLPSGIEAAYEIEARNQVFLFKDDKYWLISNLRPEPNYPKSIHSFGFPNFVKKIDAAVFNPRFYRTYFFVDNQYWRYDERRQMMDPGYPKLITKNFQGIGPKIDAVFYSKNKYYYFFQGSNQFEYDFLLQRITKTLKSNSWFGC
Method: (§1) 5-(Heteroarylmethylene)hydantoins were evaluated as inhibitors for MMP-12 at fixed concentrations of 200 and 25 μM (Table 1). At 200 μM of 20–24, the activity of MMP-12 was ≤50% the activity of positive control; for compounds 21, 24, and 25 at 25 μM, the activity of MMP12 was 69–74% while the activity for the others was >80%. […] A select subset of the 5-(heteroarylmethylene)hydantoins were evaluated as inhibitors of human carbonic anhydrase II (hCAII) at 200 μM (Table 1). […] Finally, this same subset of 5-(heteroarylmethylene)hydantoins were evaluated as inhibitors of isolated S. aureus pyruvate carboxylase (SaPC) in a fixed-time assay (Table 1). No inhibitory activity was observed up to 1000 μM.
Assays for human matrix metalloproteinase-12 activity were performed in a 96-well plate format for a total reaction volume of 100 μL, in an assay modified from Day and Cohen. All assay reagents were prepared and maintained at 22 °C until warmed to 37 °C. The omniMMP fluorogenic substrate and MMP-12 enzyme were prepared in assay buffer (50 mM HEPES, 10 mM CaCl2, 0.05% Brij-35, pH of 7.52), and small molecule effectors were prepared as a solution in 50% DMSO, 50% assay buffer. The final concentration of enzyme in the 100 μL enzymatic reaction was 0.0083 U/μL. A known inhibitor, N-[(4’-bromo [1,1’-biphenyl]-4-yl)sulfonyl]-L-valine (PD166793), was included where noted at a final concentration of 100 μM. OmniMMP fluorogenic substrate was added to the 100 μL enzymatic reaction at a final concentration of 4 μM. For all experiments, 30 μL of enzyme stock solution was added to each well in a 96-well, flat-bottom, black polystyrene microplate (SantaCruz Biotechnology, Dallas, TX, USA), followed by the addition of 10 μL of the effectors (50% assay buffer, 50% DMSO for the uninhibited reaction, PD166793 for the inhibition). The 96-well plate was then incubated in a plate reader at 37 °C for 30 min; concurrently, the substrate solution was also warmed to 37 °C for 30 min. The enzymatic reaction was initiated by adding 60 μL of the omniMMP fluorogenic substrate solution. The change in fluorescence was then monitored for 30 min with excitation and emission wavelengths at 320 and 400 nm, respectively, every 46 s for a total of 40 measurements.

[4] = target: human carbonic anhydrase II (hCAII) (Homo sapiens, UniProt P00918); assay: Human carbonic anhydrase II p-nitrophenyl acetate assay; assay type: biochemical; conditions: 200 μM compound
Method: as §1
Assays for human carbonic anhydrase II activity were performed in a 96-well plate format for a total reaction volume of 100 μL, in an assay modified from Day and Cohen. All assay reagents and solutions were prepared separately and maintained at 22 °C until warmed to 30 °C. All substrates, effectors, and enzyme were freshly dissolved and diluted in assay buffer containing 50 mM Tris (pH 8.0). The final concentration of the human carbonic anhydrase II enzyme was 200 nM. Where noted, acetazolamide was included at a final concentration of 10 μM. The substrate, p-nitrophenyl acetate, was added at a final concentration of 504 μM. For all experiments, 20 μL of enzyme stock solution was added to each well in a 96-well, flat-bottom, polystyrene microplate (Santa Cruz Biotechnology, Dallas, TX, USA), followed by the addition of 10 μL of the effectors (assay buffer for the uninhibited reaction, acetazolamide for the inhibition). The 96-well plate was then incubated in a plate reader at 30 °C for 10 min; concurrently, the substrate solution was also warmed to 30 °C for 10 min. The enzymatic reaction was initiated by adding 70 μL of the substrate solution (p-nitrophenyl acetate). The absorbance values were then measured at 405 nm every 30 s over a period of 20 min for a total of 40 measurements.

cancer migration = tested on: cancer migration; set-up: method as in PMID 20869139; conditions: cited from earlier work
GSK-3β [5] = target: T2, GSK-3β; conditions: cited from earlier work

Compound | IC50 [1] [µM] | activity at 25 µM (GSK-3β [2]) [%] | IC50 (GSK-3β [2]) [µM] | activity at 25 µM [3] [%] | activity at 200 µM [3] [%] | melting point [°C] | activity at 200 µM [4] [%] | hCAII % Activity @ 200 μM ([4]; 200 µM) [%] | activity as cancer migration inhibitors (cancer migration) | IC50 (GSK-3β [5]) [µM]
COc1cccc(/C=C2\NC(=O)NC2=O)n1 [Compound 15, (Z)-5-[(6′-Methoxy-2-pyridinyl)methylene]-2,4-imidazolidinedione] | > 1000 | 17.3 | 4.06 ± 0.3 | 87.5 | 74 | 249 to 251 | 82.1 ± 11 |  |  | 
O=C1NC(=O)/C(=C/c2cccc(-c3cccs3)n2)N1 [Compound 16] |  |  |  |  |  |  |  |  | notable activity | 
O=C1NC(=O)/C(=C/c2ccccn2)N1 [Compound 17, (Z)-5-[(2′-Pyridinyl)methylene]-2,4-imidazolidinedione] |  | 55.4 |  |  |  | 231 to 233 |  |  |  | 
O=C1NC(=O)/C(=C/c2ccc3ccccc3n2)N1 [Compound 18, (Z)-5-[(2-Quinolinyl)methylene]-2,4-imidazolidinedione] | > 1000 | 32.9 |  | 94.1 | 57.6 | > 255 |  |  |  | 
O=C1NC(=O)/C(=C/c2cccnc2)N1 [Compound 19, (Z)-5-[(3′-Pyridinyl)methylene]-2,4-imidazolidinedione] | > 1000 | 71.8 |  | 84.2 | 50.6 | > 255 | 88.9 ± 12.3 |  |  | 
Cc1cccnc1/C=C1\NC(=O)NC1=O [Compound 20, (Z)-5-[(3′-Methyl-2-pyridinyl)methylene]-2,4-imidazolidinedione] |  | 31.6 |  | 108 | 39.6 | 245 to 248 |  |  |  | 
Cc1ccnc(/C=C2\NC(=O)NC2=O)c1 [Compound 21, (Z)-5-[(4′-Methyl-2-pyridinyl)methylene]-2,4-imidazolidinedione-HCl] | > 1000 | 42 |  | 71.6 | 28.5 |  | 94.8 ± 12.8 |  |  | 
indirubin-3-monoxime |  |  |  |  |  |  |  |  |  | 0.022

More lines, main results first:

IC50 [1] [µM] | activity at 25 µM (GSK-3β [2]) [%] | IC50 (GSK-3β [2]) [µM] | activity at 25 µM [3] [%] | activity at 200 µM [3] [%] | melting point [°C] | activity at 200 µM [4] [%] | hCAII % Activity @ 200 μM ([4]; 200 µM) [%] | Compound | activity as cancer migration inhibitors (cancer migration) | IC50 (GSK-3β [5]) [µM]
> 1000 | 47 |  | 101 | 40.7 | > 250 | 87.4 ± 11.8 |  | Cc1ccc(/C=C2\NC(=O)NC2=O)nc1 [Compound 22, (Z)-5-[(5′-Methyl-2-pyridinyl)methylene]-2,4-imidazolidinedione] |  | 
> 1000 | 28.4 | 8.34 ± 0.27 | 86.4 | 46.5 |  | 88.9 ± 12.3 |  | Cc1cccc(/C=C2\NC(=O)NC2=O)n1 [Compound 23, (Z)-5-[(6′-Methyl-2-pyridinyl)methylene]-2,4-imidazolidinedione-HCl] |  | 
> 1000 | 44.6 |  | 69.1 | 39.2 |  | 91.8 ± 14.7 |  | O=C1NC(=O)/C(=C/c2ncccc2Cl)N1 [Compound 24, (Z)-5-[(3′-Chloro-2-pyridinyl)methylene]-2,4-imidazolidinedione-HCl] |  | 
> 1000 | 15.4 | 2.14 ± 0.18 | 73.9 | 50 |  | 57 ± 16.4 |  | O=C1NC(=O)/C(=C/c2cc(Cl)ccn2)N1 [Compound 25, (Z)-5-[(4′-Chloro-2-pyridinyl)methylene]-2,4-imidazolidinedione-HCl] |  | 
 | 35.3 |  | 98.6 | 72.9 | > 255 |  |  | O=C1NC(=O)/C(=C/c2ccc(Br)cn2)N1 [Compound 26, (Z)-5-[(5′-Bromo-2-pyridinyl)methylene]-2,4-imidazolidinedione] |  | 
> 1000 | 17 | 3.39 ± 0.16 | 85.8 | 88.7 | > 250 | 86.7 ± 12.1 |  | O=C1NC(=O)/C(=C/c2cccc(Br)n2)N1 [Compound 27, (Z)-5-[(6′-Bromo-2-pyridinyl)methylene]-2,4-imidazolidinedione] |  | 
 | 22.5 | 7.82 ± 0.12 | 81.8 | 61.6 | > 250 |  |  | O=C1NC(=O)/C(=C/c2ccc3ncccc3c2)N1 [Compound 28, (Z)-5-[(6′-Quinolinyl)methylene]-2,4-imidazolidinedione] |  | 
> 1000 | 27.9 |  | 98.1 | 88 | > 250 | 63 | 62.7 ± 9.8 | O=C1NC(=O)/C(=C/c2csc3ccccc23)N1 [Compound 29, (Z)-5-[(3-Benzo[b]thiophenyl)methylene]-2,4-imidazolidinedione] |  | 

Source: paper PMC11123921, “Synthesis and Evaluation of 5-(Heteroarylmethylene)hydantoins as Glycogen Synthase Kinase-3β Inhibitors” (Pharmaceuticals, 2024)
